Here are results for 6 compounds from ChEMBL document CHEMBL1150079, “Oxygenated Clerosterols Isolated from the Marine Alga Codium arabicum” (1995).

Format in all cases: functional
One test deals with P388. Description: Cytotoxicity against mouse P388 cells after 3 days by MTT assay. To be noted: P388, 72 h, read-out: ED50 (the source's name). (Tetrazolium assays rely on reduction of a dye to a coloured formazan, in cell work by metabolically active cells.)
A further test deals with KB. Briefly: Cytotoxicity against human KB cells after 3 days by MTT assay. To be noted: 72 h, read-out: ED50 (the source's name).
Another test has as its system A549. Description: Cytotoxicity against human A549 cells after 6 days by MTT assay. To be noted: A549, 144 h, read-out: ED50 (the source's name).
The subject of the next test is HT-29. Description: Cytotoxicity against human HT-29 cells after 6 days by MTT assay. The following applies: HT-29, 144 h, read-out: ED50 (the source's name).

Values after ≈ are worked out from the molar mass of the structure shown. Some results are limits rather than exact numbers.

In the case of `C=C(C)[C@@H](CC)CC[C@@H](C)[C@H]1CC[C@H]2[C@@H]3C[C@@H](O)C4=CC(=O)CC[C@]4(C)[C@H]3CC[C@]12C`, the EC50 turned out to be 0.7 µg/mL (≈ 1.64 µM) in the test with P388, 1.3 µg/mL (≈ 3.05 µM) with KB, 2.1 µg/mL (≈ 4.92 µM) in the test on A549 and 0.3 µg/mL (≈ 0.703 µM) in the test with HT-29.
`C=C(C)[C@@H](CC)CC[C@@H](C)[C@H]1CC[C@H]2[C@@H]3CC=C4C[C@@H](O)CC[C@]4(C)[C@H]3CC[C@]12C` [CLEROSTEROL]: the EC50 is 1.7 µg/mL (≈ 4.12 µM) with P388, greater than 50 µg/mL in the test on KB, 0.3 µg/mL (≈ 0.727 µM) in the test with A549 and 43.1 µg/mL (≈ 104 µM) with HT-29.
On the same counts, the results for `C=C(C)[C@@H](CC)CC[C@@H](C)[C@H]1CC[C@H]2[C@@H]3C=C[C@@]4(OO)C[C@@H](O)CC[C@]4(C)[C@H]3CC[C@]12C` are 0.5 µg/mL (≈ 1.12 µM), 1 µg/mL (≈ 2.25 µM), 1.1 µg/mL (≈ 2.47 µM) and 0.9 µg/mL (≈ 2.02 µM).
On to `C=C(C)[C@@H](CC)CC[C@@H](C)[C@H]1CC[C@H]2[C@@H]3C(=O)C=C4C[C@@H](O)CC[C@]4(C)[C@H]3CC[C@]12C`, for which the EC50 is 0.8 µg/mL (≈ 1.87 µM) with P388, 1 µg/mL (≈ 2.34 µM) in the test on KB, 1.2 µg/mL (≈ 2.81 µM) in the test with A549 and 2 µg/mL (≈ 4.69 µM) in the test with HT-29.
Regarding `C=C(C)[C@@H](CC)CC[C@@H](C)[C@H]1CC[C@H]2[C@@H]3[C@H](O)C=C4C[C@@H](O)CC[C@]4(C)[C@H]3CC[C@]12C`, the EC50 in the test with P388 is 0.2 µg/mL (≈ 0.467 µM); in the test with KB, 1.1 µg/mL (≈ 2.57 µM); with A549, 0.5 µg/mL (≈ 1.17 µM); in the test on HT-29, 0.6 µg/mL (≈ 1.4 µM).
The matching figures for `C=C(C)[C@@H](CC)CC[C@@H](C)[C@H]1CC[C@H]2[C@@H]3[C@H](OO)C=C4C[C@@H](O)CC[C@]4(C)[C@H]3CC[C@]12C`: 0.4 µg/mL (≈ 0.899 µM), 1 µg/mL (≈ 2.25 µM), 0.5 µg/mL (≈ 1.12 µM) and 1 µg/mL (≈ 2.25 µM).
